The molecules below were run on MOLM-13 (assay: Antiproliferative activity against human MOLM-13 cells assessed as reduction in cell viability incubated for 72 hrs by CellTiter-Glo assay). Settings: MOLM-13, 72 h.
Type: functional, cell-based

SMILES	IC50 [nM]
Cc1cn(-c2cc(O[C@@H](C)C(F)(F)F)c(C(=O)Nc3c(C)n[nH]c3Cl)cc2F)nc1[C@H](C)O	0.21
Cc1cn(-c2cc(O[C@@H](C)C(F)(F)F)c(C(=O)Nc3c(C)n[nH]c3Cl)cc2F)nc1[C@@H](C)O	0.26
Cc1cn(-c2cc(O[C@@H](C)C(F)(F)F)c(C(=O)Nc3c(C)n[nH]c3Cl)cc2F)nc1C(C)(C)O	0.09

Stronger by IC50, values ahead:

IC50 [nM]	SMILES
0.03	Cc1cn(-c2cc(O[C@@H](C)C(F)(F)F)c(C(=O)Nc3c(F)cccc3Cl)cc2F)nc1[C@H](C)O
0.08	Cc1cn(-c2cc(O[C@@H](C)C(F)(F)F)c(C(=O)Nc3c(F)cccc3Cl)cc2F)nc1[C@@H](C)O
0.07	Cc1cn(-c2cc(O[C@@H](C)C(F)(F)F)c(C(=O)Nc3c(F)cccc3Cl)cc2F)nc1C(C)(C)O
